In PubChem BioAssay (NCI):
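Each compound was tested at five concentrations against cells in 96-well plates for 48 hours. GI50 is the concentration that inhibits growth by half. The concentration for full growth arrest is given as TGI.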

Assays:
Assay in all cases: NCI anticancer screen, dose series, 48 h
[1] = tested on: NCI-H460 lung
[2] = tested on: SK-MEL-28 melanoma
[3] = tested on: SK-MEL-2 melanoma
[4] = tested on: SN12C renal
[5] = tested on: SW-620 colon
[6] = tested on: T-47D breast
[7] = tested on: HCC-2998 colon
[8] = tested on: RXF 393 renal
[9] = tested on: COLO 205 colon
[10] = tested on: UACC-62 melanoma

Cc1cc(O)ccc1C1=NN(c2ccc(S(C)(=O)=O)cc2)C(=O)CC1
GI50 [1]: 3.87 µM
TGI [1]: > 100 µM
GI50 [2]: 9.55 µM
TGI [2]: > 100 µM
GI50 [3]: 3.48 µM
TGI [3]: 32.8 µM
GI50 [4]: 7.18 µM
TGI [4]: > 100 µM
GI50 [5]: 3.32 µM
TGI [5]: > 100 µM
GI50 [6]: 20.2 µM
TGI [6]: > 100 µM
GI50 [7]: 46.7 µM
TGI [7]: > 100 µM
GI50 [8]: 12.8 µM
TGI [8]: > 100 µM
GI50 [9]: 6.62 µM
TGI [9]: 74.4 µM
GI50 [10]: 4 µM
TGI [10]: > 100 µM

CS(=O)(=O)Nc1ccc(-c2cc(-c3ccccc3)cc(C(N)=O)c2N)cc1
GI50 [1]: > 25 µM
TGI [1]: > 25 µM
GI50 [2]: > 25 µM
TGI [2]: > 25 µM
GI50 [3]: > 25 µM
TGI [3]: > 25 µM
GI50 [4]: > 25 µM
TGI [4]: > 25 µM
GI50 [5]: > 25 µM
TGI [5]: > 25 µM
GI50 [6]: > 21.5 µM
TGI [6]: > 25 µM
GI50 [7]: > 25 µM
TGI [7]: > 25 µM
GI50 [8]: > 25 µM
TGI [8]: > 25 µM
GI50 [9]: > 25 µM
TGI [9]: > 25 µM
GI50 [10]: > 25 µM
TGI [10]: > 25 µM

COc1cc(-c2nc3ccccc3s2)ccc1NC(=O)COc1ccc(Cl)cc1
GI50 [1]: 2.99 µM
TGI [1]: > 100 µM
GI50 [2]: 6.33 µM
TGI [2]: 71.3 µM
GI50 [3]: 3.52 µM
TGI [3]: 15.3 µM
GI50 [4]: 5.29 µM
TGI [4]: > 100 µM
GI50 [5]: 53.7 µM
TGI [5]: > 100 µM
GI50 [6]: 4.42 µM
TGI [6]: > 100 µM
GI50 [7]: 18.6 µM
TGI [7]: > 100 µM
GI50 [8]: 3.25 µM
TGI [8]: 11.3 µM
GI50 [9]: 6.45 µM
TGI [9]: > 100 µM
GI50 [10]: 2.74 µM
TGI [10]: 13 µM
